Measurements published in US20120277265A1, “NOVEL POLYQUINOLINE DERIVATIVES AND THE THERAPEUTIC USE THEREOF” (CENTRE NATIONAL DE LA RECHERCHE SCIENTIFIQUE (C.N.R.S.), priority 2005, published 2012).

Columns and labels:
[1] = Hydrogen peroxide produced by Aβ1-42 in the presence of CuCl2, ascorbate, air and ligand (Amplex Red H2O2/HRP); assay type: biochemical; details: CuCl2 0.4 μM, ascorbate 10 μM, air
[2] = biological target: T1, copper complexes of Aβ1-42 peptide (Homo sapiens, UniProt P05067); experiment: as above; assay type: biochemical; details: for amount of H2O2, 0.2 μM Aβ1-42 Cu/Aβ = 2 / amount of H2O2, 0.5 μM Aβ1-42 Cu/Aβ = 0.75: CuCl2 0.4 μM, ascorbate 10 μM, air
T1 construct: The β-amyloid peptide Aβ1-42 (Aβ1-42) was synthesised, purified (to a purity greater than 95%); made in house; host or cells: chemical peptide synthesis (no expression host)
T1 sequence (P05067 672-713 limits assumed, one chain of several): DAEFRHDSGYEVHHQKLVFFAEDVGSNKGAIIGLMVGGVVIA

[3] = Competition reaction between ligand (Ls), CuCl2 and competing chelator (Lc), UV-visible; affinity constants; details: for number of Lc equivalents making it possible to form 50% of CuLs, Lc = EDTA: mixture of Ls (15 μM, 1 equivalent) and CuCl2 (1/1, mol/mol); for % MLs: Cu(II), EDTA as Lc, 1/1/1 at 15 μM
Protocol: An organic solvent (CH3OH, dioxane or DMSO) was added in order to achieve good solubility of all the ligands and metal complexes in the concentrations used in these experiments. Monitoring has shown that all the ligands and metal complexes examined yield results corresponding to the Beer-Lambert Law in the experimental conditions used.
Lc competing chelators were selected to provide a range of stability constants for the metal ion M presenting intervals of approximately one or two log units, as well as to make it possible for each competition experiment to quantify one of the Ls, MLs, Lcc or MLc species with a UV-vis spectrum wavelength without contaminating the three other species (FIG. 7). […] As the concentration [MLs]=x % of C is measured on the UV-visible spectra, the concentrations [Ls]=(1−x) % of C, [MLc]=(1−x) % of C and [Lc]=x % of C can be deduced therefrom and:
In these conditions, [MLs]=[MLc]; [MLs]+[Lc]=Y, y≧50 and:

[4] = UV-visible spectrophotometric titration with CuCl2 (metal/ligand stoichiometry); assay type: binding; details: 15 μM ligand; Tris-HCl buffer pH 7.4/organic solvent, per ligand as in Table 3 column Solvent
Protocol: An organic solvent (CH3OH, dioxane or DMSO) was added in order to achieve good solubility of the ligands and metal complexes in the concentrations used in these experiments. Exact proportions of the organic solvent/buffer mixture are specified for each UV-visible characterisation of the different ligands or metal complexes.
Aliquot portions of concentrated CuCl2 or ZnCl2 solutions (M) are added to a 15 μM ligand solution so as to induce only negligible variations in volume. After each addition, changes in absorption spectra are observed immediately and are consistent between two additions, which corresponds to a rapid complexing process. The exact absorption values relating to each ligand and the copper(II) or zinc(II) complexes thereof are detailed hereinafter in the Experimental part (in the Synthesis part for ligands and hereinafter for the metal complexes).
The stoichiometry of the different ligands (L) for Cu(II) or ZN(II) have therefore been determined spectrophotometrically by metal ion titration. In this example, for an M/L ratio increasing from 0 to 1, π→π* with transition, centred at 251 nm for the free ligand, is shifted to a lower energy with a concomitant appearance of an absorption band in the visible region of the spectrum (λmax to 383 nm), which is probably the result of an MLCT transition. For greater M/L ratios, no additional change in the UV-visible absorption spectra is observed.

Aβ1-42 = biological target: T2, Aβ1-42 (Homo sapiens, UniProt P05067); experiment: Inhibition of the precipitation of Aβ1-42 by the addition of ligand (Micro BCA assay of soluble/aggregated peptide); assay type: biochemical; details: Aβ1-42 5 μM, pH 7.4; for CuCl2 % soluble Aβ: 20 μM CuCl2, 1 h 37° C. then 1 h with 200 μM ligand; for FeCl3 % soluble Aβ: 20 μM FeCl3, 1 h 37° C. then 1 h with 200 μM ligand; for ZnCl2 % soluble Aβ: 20 μM ZnCl2, 1 h 37° C. then 1 h with 200 μM ligand; for without metal % soluble Aβ: no metal salt, 1 h 37° C. then 1 h with 200 μM ligand
T2 construct: The β-amyloid peptide Aβ1-42 (Aβ1-42) was synthesised, purified (to a purity greater than 95%); made in house; host or cells: chemical peptide synthesis (no expression host)
T2 sequence (P05067 672-713): as the sequence (P05067 672-713 limits assumed, one chain of several) above
In short: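 Aβ1-42 (5 μM) pre-aggregated 1 h at 37 °C with stirring in 20 mM Tris-HCl/150 mM NaCl pH 7.4, with or without CuCl2, ZnCl2 or FeCl3 (20 μM). Ligand (200 μM, DMSO) added, 1 further hour at 37 °C; after centrifugation, peptide in supernatant and pellet quantified by Micro BCA against BSA standards.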

[5] = Ls/CuCl2/Lc 1/1/1 at 15 μM, solvent per ligand as in Table 3

Structure (SMILES)	amount of H2O2, without Aβ1-42 ([1]; ligand 1 eq/Cu(II) (0.4 μM))	amount of H2O2, 0.2 μM Aβ1-42 Cu/Aβ = 2 ([2]; ligand 1 eq/Cu(II) (0.4 μM))	percentage of the CuLs species at equilibrium, competing ligand EDTA [3, 5]	Complex observed by titration with Cu^II (observed L/Cu(II) stoichiometry) [4]	CuCl2 % soluble Aβ (Aβ1-42)	FeCl3 % soluble Aβ (Aβ1-42)	ZnCl2 % soluble Aβ (Aβ1-42)	without metal % soluble Aβ (Aβ1-42)	amount of H2O2, 0.5 μM Aβ1-42 Cu/Aβ = 0.75 ([2]; ligand 1 eq/Cu(II) (0.4 μM))	percentage of the CuLs species at equilibrium, competing ligand EDDA [3, 5]	percentage of the CuLs species at equilibrium, competing ligand HIDA [3, 5]	number of Lc equivalents making it possible to form 50% of CuLs, Lc = EDTA [3]	other results
O=C(c1ccc2cccc(O)c2n1)c1ccc2cccc(O)c2n1 [Compound 6, Bis(8-hydroxy-2-quinoline)methanone]	0.82 nmol	0.86 ± 0.11 nmol	75%	LCu^II(1/1)	58 ± 3%	51%	54%	56%	–	–	–	–	–
Oc1cccc2ccc(C(F)(F)c3ccc4cccc(O)c4n3)nc12 [Compound 5, 2,2′-(Difluoromethanediyl)-bis(8-hydroxyquinoline)]	0.39 nmol	0.55 ± 0.08 nmol	45%	LCu^II(1/1)	51 ± 1%	52%	50%	60%	–	–	–	–	–
CC(C)(c1ccc2c(Cl)ccc(O)c2n1)c1ccc2c(Cl)ccc(O)c2n1 [Compound 4, 2,2′-(2,2-Propanediyl)-bis(5-chloro-8-hydroxyquinoline)]	0.12 nmol	0.37 ± 0.09 nmol	40%	Cu^II(1/1)	30%	45%	49%	55%	0.35 nmol	90%	100%	0.65 eq	–
c1cnc2c(Nc3cccc4cccnc34)cccc2c1 [Compound 12, Bis(8-quinoline)amine]	0.40 nmol	0.47 ± 0.09 nmol	55%	LCu^II(1/1)	69 ± 2%	59%	52%	69%	–	–	–	–	–
CC(C)(c1ccc2cccc(O)c2n1)c1ccc2cccc(O)c2n1 [Compound 3, 2,2′-(2,2-propanediyl)-bis(8-hydroxyquinoline)]	0.84 nmol	0.71 ± 0.02 nmol	50%	–	47 ± 3%	60%	59%	56%	0.55 nmol	100%	100%	1 eq	amount of H2O2, without Aβ1-42 ([1]; ligand 0.5 eq/Cu(II)): 2.12 nmol; H2O2 production as a function of the Cu/Aβ1-42 ratio ([2]; FIG. 11, 1 equivalent of ligand per Cu(II) (0.4 μM), Aβ1-42 0.2 to 0.53 μM): virtually inhibit H2O2 production; amount of H2O2, 0.2 μM Aβ1-42 Cu/Aβ = 2 ([2]; ligand 0.5 eq/Cu(II)): 0.94 nmol; amount of H2O2, 0.2 μM Aβ1-42 Cu/Aβ = 2 ([2]; ligand 1.5 eq/Cu(II)): 0.49 nmol; % MLs ([3]; Buffer/CH3OH (1/1)): 50%; % MLs ([3]; Buffer/DMSO (2/8)): 55%; % MLs ([3]; Buffer/dioxane (1/1)): 45%; percentage of the CuLs species at equilibrium, competing ligand CTDA [3, 5]: 15%; percentage of the CuLs species at equilibrium, competing ligand EDA [3, 5]: 100%; percentage of the CuLs species at equilibrium, competing ligand Tetren [3, 5]: 0%; percentage of the CuLs species at equilibrium, competing ligand Trien [3, 5]: 30%; percentage of the CuLs species at equilibrium, competing ligand biPy [3, 5]: 100%
